Data from ChEMBL document CHEMBL1125851, “Trans-esterification reactions yield novel masked phosphate derivatives of the anti-cancer agent araC” (Bioorg Med Chem Lett, 1991).

Test system: Nucleic Acid
Experiment: The compound was tested for its ability to inhibit the incorporation of tritiated thymidine into mammalian epithelial cells (DNA) at 30 uM dose
Type: cell-based
Conditions: Epithelial cell

Question: `CCOP(=O)(OC[C@H]1OC(n2ccc(N)nc2=O)[C@@H](O)[C@@H]1O)OCC(Cl)(Cl)Cl` (single isomer, unassigned; form 1) was tested. Which inhibition did it give?
Answer: 31%

Question: Which inhibition does the source give for `CCCCNP(=O)(OC[C@H]1OC(n2ccc(N)nc2=O)[C@@H](O)[C@@H]1O)OCC(Cl)(Cl)Cl` (stereo partly drawn) here?
Answer: 48%

Question: With `COP(=O)(OC[C@H]1OC(n2ccc(N)nc2=O)[C@@H](O)[C@@H]1O)OCC(Cl)(Cl)Cl` (stereo partly drawn) as the compound, how does the inhibition read?
Answer: 22%

Question: For `CCCNP(=O)(OC[C@H]1OC(n2ccc(N)nc2=O)[C@@H](O)[C@@H]1O)OCC(Cl)(Cl)Cl` (stereo partly drawn), which inhibition is on record?
Answer: 45%

Question: How did the inhibition turn out when `CCOP(=O)(OC[C@H]1OC(n2ccc(N)nc2=O)[C@@H](O)[C@@H]1O)OCC(Cl)(Cl)Cl` (single isomer, unassigned; form 2) was run?
Answer: 30%

Question: For `Nc1ccn(C2O[C@H](COP(=O)(OCC(Cl)(Cl)Cl)OCC(Cl)(Cl)Cl)[C@@H](O)[C@@H]2O)c(=O)n1` (stereo partly drawn), which inhibition is on record?
Answer: 91%

Question: With `CCCOP(=O)(OC[C@H]1OC(n2ccc(N)nc2=O)[C@@H](O)[C@@H]1O)OCC(Cl)(Cl)Cl` (stereo partly drawn) as the compound, how does the inhibition read?
Answer: 40%

Question: For `Nc1ccn([C@@H]2O[C@H](CO)[C@@H](O)[C@@H]2O)c(=O)n1`, which inhibition is on record?
Answer: 83%
